What is called inhibition is the percentage by which the read-out fell short of the control. The term EC50 denotes the concentration needed to bring the measured effect to its halfway point.

This is an account of results in patent US9238039B2, “Pyrazolo[1,5-A]pyrimidines for antiviral treatment” (Gilead Sciences, Inc., priority 2010, dated 2016).

The test system of the test is RSV strain A2. Briefly: RSV antiviral cytoprotection assay in Hep2 cells (96-well and 384-well format, Cell TiterGlo read-out). To be noted: human respiratory syncytial virus; for inhibition at 0.5 µM: HEp-2, 0.5 uM, RSV-induced cytopathic effect in Hep2 cells, calculated from fitted dose response curve, normalized to 0% and 100%; for EC50: HEp-2, RSV-induced cytopathic effects, Hep2 cells, class symbols. The class given is cell-based, Respiratory Syncytial Virus (RSV).

In the case of `CC(C)(C)OC(=O)N1CCN(c2cc(C3CC3)nc3cc([C@@H]4CCCCN4C(=O)c4cc(Cl)ccc4NS(C)(=O)=O)nn23)CC1` [Compound 226], the inhibition at 0.5 µM was 100% and the EC50 is 0.1 to 100 nM.
The like results for `Cc1cn2nc([C@@H]3CCCCN3C(=O)c3cccc(N)c3)cc2nc1N1CC[C@H](C#N)C1` [Compound 153] were, in that order, 100% and 0.1 to 100 nM.
The like results for `Cc1cn2nc([C@@H]3CCCCN3C(=O)c3cc4c(s3)CCCC4)cc2nc1N1CC[C@H](N)C1` [Compound 370] were, in that order, 99% and 0.1 to 100 nM.
With `Cc1cn2nc([C@@H]3CC[C@H](C)CN3C(=O)c3cc(Cl)ccc3NS(C)(=O)=O)cc2nc1N1CCC1` [Compound 138], the inhibition at 0.5 µM is 100% and the EC50 was 0.1 to 100 nM.
`Cc1cn2nc([C@@H]3CCCCN3C(=O)c3cc4cccnc4s3)cc2nc1N1CC[C@H](N)C1` [Compound 362]: the inhibition at 0.5 µM is 100% and the EC50 is 0.1 to 100 nM.
The like results for `Cc1cn2nc([C@@H]3CCCCN3C(=O)c3cc(Cl)ccc3NS(C)(=O)=O)cc2nc1N1CC[C@@H](CN)C1` [Compound 151] were, in that order, 99% and 0.1 to 100 nM.
Regarding `Cc1cc(C(=O)N2CCCC[C@H]2c2cc3nc(N4CC[C@H](N)C4)c(C)cn3n2)c2cnn(C)c2n1` [Compound 393], the inhibition at 0.5 µM is 99% and the concentration giving a half-maximal response (EC50) lay within 0.1 to 100 nM.
Regarding `Cc1cn2nc([C@@H]3CCCCN3C(=O)c3ccc(Cl)c(O)c3)cc2nc1N1CC[C@H](N)C1` [Compound 340], the inhibition at 0.5 µM is 100% and the EC50 was 0.1 to 100 nM.
Turning to `Cc1cn2nc([C@@H]3CCCCN3C(=O)c3ccnc(-n4cnnc4)c3)cc2nc1N1CC[C@H](N)C1` [Compound 388], the inhibition at 0.5 µM was 100% and the EC50 is 0.1 to 100 nM.
Turning to `Cc1cn2nc([C@@H]3CCCCN3C(=O)c3ccc(-c4ccccc4)cc3)cc2nc1N1CC[C@H](N)C1` [Compound 406], the inhibition at 0.5 µM is 98% and the EC50 was 0.1 to 100 nM.
The like results for `Cc1cn2nc([C@@H]3CCCCN3C(=O)c3ccccc3-c3ccccc3)cc2nc1N1CC[C@H](N)C1` [Compound 407] were, in that order, 92% and 0.1 to 100 nM.
For `CS(=O)(=O)Nc1ccc(Cl)cc1C(=O)N1CCCC[C@H]1c1cc2nc(N3CC(N)C3)cc(N3CC(N)C3)n2n1` [Compound 131], the inhibition at 0.5 µM was 100% and the EC50 was in the range of 0.1 to 100 nM.
The like results for `Cc1ccc(NS(C)(=O)=O)c(C(=O)N2Cc3ccccc3C[C@H]2c2cc3nc(C)c(C)c(N(C)C)n3n2)c1` [Compound 34] were, in that order, 91% and 0.1 to 100 nM.
In the case of `Cc1cc(C2CC2)nc2cc([C@@H]3CCCCN3C(=O)C(NC(=O)OC(C)(C)C)c3cccc(Cl)c3)nn12` (stereo partly drawn) [Compound 238], the inhibition at 0.5 µM was 100% and the EC50 fell in the range of 101 to 1000 nM.
Regarding `Cc1cn2nc([C@@H]3CCCCN3C(=O)c3cc(Cl)ccc3NC(=O)C3CC3)cc2nc1N1CC[C@H](N)C1` [Compound 219], the inhibition at 0.5 µM is 100% and the concentration giving a half-maximal response (EC50) fell in the range of 0.1 to 100 nM.
As for `Cc1ccc(N2CCCC2=O)c(C(=O)N2CCCC[C@H]2c2cc3nc(C4CC4)cc(C)n3n2)c1` [Compound 112], the inhibition at 0.5 µM is 97% and the EC50 was 0.1 to 100 nM.
Regarding `CC(=O)Nc1ccc(C)cc1C(=O)N1CCCC[C@H]1c1cc2nc(N3CC(O)C3)c(C)cn2n1` [Compound 221], the inhibition at 0.5 µM is 100% and the EC50 was 0.1 to 100 nM.
Take `Cc1cn2nc([C@@H]3CCCCN3C(=O)c3ccccc3CO)cc2nc1N1CC[C@H](N)C1` [Compound 291]: the inhibition at 0.5 µM is 88% and the EC50 lay in the range of 0.1 to 100 nM.
Turning to `Cc1nc2cc([C@@H]3CCCCN3C(=O)c3cc(Cl)ccc3NS(C)(=O)=O)nn2c(N(C)C)c1C` [Compound 99], the inhibition at 0.5 µM is 99% and the EC50 lay within 0.1 to 100 nM.
As for `Cc1cn2nc([C@@H]3CCCCN3C(=O)c3scc4c3OCCO4)cc2nc1N1CC[C@H](N)C1` [Compound 373], the inhibition at 0.5 µM was 99% and the EC50 lay in the range of 0.1 to 100 nM.
The like results for `Cc1cn2nc([C@@H]3CCCCN3C(=O)c3ccnc(Cl)c3F)cc2nc1N1CC[C@H](N)C1` [Compound 352] were, in that order, 100% and 0.1 to 100 nM.
As for `Cc1cn2nc([C@@H]3CCCCN3C(=O)c3cc(Cl)ccc3NS(C)(=O)=O)cc2nc1N1C[C@H](O)[C@@H](O)C1` [Compound 197], the inhibition at 0.5 µM was 100% and the EC50 lay within 0.1 to 100 nM.
For `Cc1cn2nc([C@@H]3CCCCN3C(=O)c3[nH]c4ccc(F)cc4c3C)cc2nc1N1CC[C@H](N)C1` [Compound 398], the inhibition at 0.5 µM is 99% and the EC50 lay within 0.1 to 100 nM.
As to `Cc1cn2nc([C@@H]3CCCCN3C(=O)c3cc(Cl)ccc3NS(C)(=O)=O)cc2nc1N[C@H](C)CO` [Compound 149], the inhibition at 0.5 µM is 98% and the EC50 was 0.1 to 100 nM.
Take `Cc1cn2nc([C@@H]3CCCCN3C(=O)c3cc(Cl)ccc3NS(C)(=O)=O)cc2nc1N1CCC[C@H]1CN1CCCC1` [Compound 206]: the inhibition at 0.5 µM is 99% and the EC50 was 0.1 to 100 nM.
Consider `Cc1ccc(NS(C)(=O)=O)c(C(=O)N2CCCC[C@H]2c2cc3nc(N4CC[C@@H](C#N)C4)c(C)cn3n2)c1` [Compound 188], for which the inhibition at 0.5 µM was 100% and the EC50 is 0.1 to 100 nM.
In the case of `Cc1cn2nc([C@@H]3CCCCN3C(=O)c3cncnc3N)cc2nc1N1CC[C@H](N)C1` [Compound 276], the inhibition at 0.5 µM was 90% and the EC50 is 101 to 1000 nM.
Regarding `Cc1ccn2c(F)c(C(=O)N3CCCC[C@H]3c3cc4nc(N5CC[C@H](N)C5)c(C)cn4n3)nc2c1` [Compound 403], the inhibition at 0.5 µM was 100% and the EC50 fell in the range of 0.1 to 100 nM.
Take `Cc1cn2nc([C@@H]3CCCCN3C(=O)c3cc(Cl)ccc3NC(=O)OC(C)C)cc2nc1N1CC[C@H](N)C1` [Compound 249]: the inhibition at 0.5 µM is 86% and the EC50 lay in the range of 0.1 to 100 nM.
As for `Cc1cn2nc([C@@H]3CCCCN3C(=O)c3cc(Cl)ccc3NS(C)(=O)=O)cc2nc1N1CC[C@@H](C)C1` [Compound 204], the inhibition at 0.5 µM is 98% and the EC50 was in the range of 0.1 to 100 nM.
In the case of `Cc1cn2nc([C@@H]3CCCCN3C(=O)c3c4c(nn3C)CCCC4)cc2nc1N1CC[C@H](N)C1` [Compound 367], the inhibition at 0.5 µM was 94% and the EC50 lay within 0.1 to 100 nM.
In the case of `COc1ccc(C(=O)N2CCCC[C@H]2c2cc3nc(N4CC[C@H](N)C4)c(C)cn3n2)cc1Cl` [Compound 375], the inhibition at 0.5 µM was 99% and the EC50 was in the range of 0.1 to 100 nM.
As to `Cc1cn2nc([C@@H]3CCCCN3C(=O)c3cc(Cl)ccc3NS(C)(=O)=O)cc2nc1N1CCC(C#N)CC1` [Compound 215], the inhibition at 0.5 µM is 99% and the EC50 is 0.1 to 100 nM.
As for `Cc1cn2nc([C@@H]3CCCCN3C(=O)c3cc(C4CC4)[nH]n3)cc2nc1N1CC[C@H](N)C1` [Compound 297], the inhibition at 0.5 µM was 95% and the EC50 lay in the range of 0.1 to 100 nM.
Take `CCCn1cc(Cl)c(C(=O)N2CCCC[C@H]2c2cc3nc(N4CC[C@H](N)C4)c(C)cn3n2)n1` [Compound 381]: the inhibition at 0.5 µM is 100% and the EC50 lay within 0.1 to 100 nM.
For `Cc1cccc(NS(C)(=O)=O)c1C(=O)N1CCCC[C@H]1c1cc2[nH]c(C)c(C)c(=O)n2n1` [Compound 32], the inhibition at 0.5 µM is 99% and the EC50 fell in the range of 0.1 to 100 nM.
As to `COC(=O)Nc1ccc(Cl)cc1C(=O)N1CCCC[C@H]1c1cc2nc(N3CC[C@H](N)C3)c(C)cn2n1` [Compound 220], the inhibition at 0.5 µM is 100% and the EC50 was 0.1 to 100 nM.
Turning to `Cc1cn2nc([C@@H]3CC[C@H](C)CN3C(=O)c3cc(Cl)ccc3NS(C)(=O)=O)cc2nc1N1CC(O)C1` [Compound 135], the inhibition at 0.5 µM was 100% and the EC50 lay in the range of 0.1 to 100 nM.
The like results for `Cc1ccc(NS(C)(=O)=O)c(C(=O)N2CCCC[C@H]2c2cc3nc(C)c(C)c(N(C)C)n3n2)c1` [Compound 101] were, in that order, 100% and 0.1 to 100 nM.
The like results for `Cc1cn2nc([C@@H]3CCCCN3C(=O)c3cc(Cl)ccc3NS(C)(=O)=O)cc2nc1N1CC(OC(=O)CCC(=O)O)C1` [Compound 144] were, in that order, 99% and 0.1 to 100 nM.
As for `Cc1cn2nc([C@@H]3CCCCN3C(=O)c3cc(Cl)ccc3NS(C)(=O)=O)cc2nc1N1CC(N)C(C#N)C1` (stereo partly drawn) [Compound 186], the inhibition at 0.5 µM is 100% and the EC50 lay within 0.1 to 100 nM.
The like results for `C[C@@H]1CN(c2cc(N3CC(O)C3)nc3cc([C@@H]4CCCCN4C(=O)c4cc(Cl)ccc4NS(C)(=O)=O)nn23)C[C@H](C)O1` [Compound 108] were, in that order, 100% and 0.1 to 100 nM.
Consider `Cc1ccc(C(=O)N2CCCC[C@H]2c2cc3nc(N4CC[C@H](N)C4)c(C)cn3n2)cc1O` [Compound 294], for which the inhibition at 0.5 µM was 14% and the EC50 was 1000 to 10000 nM.
`COc1cc(Cl)cc(C(=O)N2CCCC[C@H]2c2cc3nc(N4CC[C@H](N)C4)c(C)cn3n2)c1` [Compound 376]: the inhibition at 0.5 µM was 100% and the EC50 lay in the range of 0.1 to 100 nM.
Regarding `CN1CCN(c2cc(N3CCC3)nc3cc([C@@H]4CCCCN4C(=O)c4cc(Cl)ccc4NS(C)(=O)=O)nn23)CC1` [Compound 165], the inhibition at 0.5 µM was 100% and the EC50 was in the range of 0.1 to 100 nM.
Take `Cc1ccc(Cl)cc1C(=O)N1CCCC[C@H]1c1cc2nc(N3CC[C@H](N)C3)c(C)cn2n1` [Compound 335]: the inhibition at 0.5 µM is 99% and the half-maximal effective concentration (EC50) lay within 0.1 to 100 nM.
As to `CN(C)CCN(C)c1cc(N2CCC2)nc2cc([C@@H]3CCCCN3C(=O)c3cc(Cl)ccc3NS(C)(=O)=O)nn12` [Compound 175], the inhibition at 0.5 µM is 100% and the EC50 was in the range of 0.1 to 100 nM.
For `Cc1cn2nc([C@@H]3CCCCN3C(=O)c3ccc4ncsc4c3)cc2nc1N1CC[C@H](N)C1` [Compound 361], the inhibition at 0.5 µM is 88% and the EC50 lay within 0.1 to 100 nM.
